Assay results: patent US20240041042A1, “1-(PYRIDYL)-5-AZINYLPYRAZOLE DERIVATIVES, AND THEIR USE FOR CONTROL OF UNDESIRED PLANT GROWTH” (Bayer Aktiengesellschaft, priority 2020, published 2024)
Read-outs that look alike come from different tables or passages of the source.

Key:
Type in all cases: in vivo
[1] = tested on: Abutilon theophrasti (ABUTH); assay: Pre-emergence herbicidal action against ABUTH; conditions: Dosage column 320 g/ha (title prints 3200 g/ha); scored visually after about 3 weeks; 100% = plants have died
Source text: Seeds of monocotyledonous and dicotyledonous weed plants and crop plants are placed in plastic or organic planting pots and covered with soil. The compounds of the invention, formulated in the form of wettable powders (WP) or as emulsion concentrates (EC), are then applied to the surface of the covering soil as aqueous suspension or emulsion with addition of 0.5% additive at a water application rate equivalent to 600 l/ha. After the treatment, the pots are placed in a greenhouse and kept under good growth conditions for the trial plants. After about 3 weeks, the effect of the preparations is scored visually in comparison with untreated controls as percentages. For example, 100% activity=the plants have died, 0% activity=like control plants.
Tables A1 to A13 below show the effects of selected compounds of the general formula (I) on various harmful plants and at an application rate corresponding to 320 g/ha or lower, which were obtained by the experimental procedure mentioned above. The appendices “a”, “b” and “c” give differentiation by dosage used with otherwise the same harmful plants tested.

[2] = tested on: Alopecurus myosuroides (ALOMY); assay: Pre-emergence herbicidal action against ALOMY; conditions: scored visually after about 3 weeks, 100% = plants have died
In short: (§1)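 Pre-emergence soil-surface spray, WP/EC formulation, 0.5% additive, 600 l/ha water, rates of 320 g/ha or lower. Greenhouse, ~3 wk. Visual score, % of untreated control (100% = plants dead, 0% = like control).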

[3] = tested on: Amaranthus retroflexus (AMARE); assay: Pre-emergence herbicidal action against AMARE; conditions: visual scoring after about 3 weeks vs untreated controls
In short: as §1

Avena fatua (AVEFA) [4] = assay: Pre-emergence herbicidal action against AVEFA; conditions: visual scoring after about 3 weeks vs untreated controls
In short: as §1

[5] = tested on: Echinochloa crus-galli (ECHCG); assay: Pre-emergence herbicidal action against ECHCG; conditions: dosage 320 g/ha
In short: as §1

Lolium rigidum (LOLRI) [6] = assay: Pre-emergence herbicidal action against LOLRI
In short: as §1

[7] = tested on: Pharbitis purpurea (PHBPU); assay: Pre-emergence herbicidal action against PHBPU; conditions: dosage 320 g/ha
In short: as §1

[8] = tested on: Polygonum convolvulus (POLCO); assay: Pre-emergence herbicidal action against POLCO
In short: as §1

[9] = tested on: Verconica persica (VERPE); assay: Pre-emergence herbicidal action against VERPE; conditions: dosage 320 g/ha
In short: as §1

Viola tricolor (VIOTR) [10] = assay: Pre-emergence herbicidal action against VIOTR
In short: as §1

[11] = tested on: Abutilon theophrasti (ABUTH); assay: Post-emergence herbicidal action against ABUTH; conditions: visual rating about 3 weeks after treatment vs untreated controls (100% = plants have died, 0% = like control plants)
In short: (§2)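 Doses of 320 g/ha or lower, suffixes a, b and c marking different dosages, were applied post-emergence at the one-leaf stage in 600 l/ha water with 0.5% additive. Damage was assessed visually after about 3 weeks in the greenhouse.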

[12] = tested on: Alopecurus myosuroides (ALOMY); assay: Post-emergence herbicidal action against ALOMY; conditions: visual rating about 3 weeks after treatment vs untreated controls (100% = plants have died, 0% = like control plants)
In short: as §2

[13] = tested on: Amaranthus retroflexus (AMARE); assay: Post-emergence herbicidal action against AMARE
In short: as §2

Avena fatua (AVEFA) [14] = assay: Post-emergence herbicidal action against AVEFA; conditions: visual rating about 3 weeks after treatment
In short: as §2

[15] = tested on: Echinochloa crus-galli (ECHCG); assay: Post-emergence herbicidal action against ECHCG
In short: as §2

Lolium rigidum (LOLRI) [16] = assay: Post-emergence herbicidal action against LOLRI
In short: as §2

[17] = tested on: Pharbitis purpurea (PHBPU); assay: Post-emergence herbicidal action against PHBPU
In short: as §2

[18] = tested on: Polygonum convolvulus (POLCO); assay: Post-emergence herbicidal action against POLCO
In short: as §2

Setaria viridis (SETVI) [19] = assay: Post-emergence herbicidal action against SETVI
In short: as §2

[20] = tested on: Verconica persica (VERPE); assay: Post-emergence herbicidal action against VERPE
In short: as §2

Viola tricolor (VIOTR) [21] = assay: Post-emergence herbicidal action against VIOTR
In short: as §2

Oryza sativa (ORYSA) = conditions: crop plant compatibility, effect in comparison to untreated controls
In short: (§3)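 Effects were read visually as % versus untreated controls (0% = no effect, 100% = death) about 3 weeks post-treatment. Application was a post-emergence spray at the one-leaf stage of WP/EC formulations with 0.5% additive at 600 l/ha. Different dosages are denoted a, b and c.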

[22] = tested on: Matricaria inodora (MATIN); assay: Pre-emergence herbicidal action against MATIN; conditions: dosage 320 g/ha
In short: as §1

Setaria viridis (SETVI) [23] = assay: Pre-emergence herbicidal action against SETVI
In short: as §1

Zea mays (ZEAMX) = conditions: crop plant compatibility, 80 g/ha, effect vs untreated controls
In short: as §3

[24] = 80 g/ha, visual rating about 3 weeks after treatment vs untreated controls (100% = plants have died, 0% = like control plants)
[25] = 320 g/ha, visual rating about 3 weeks after treatment

Row | SMILES | Pre-emergence action against ABUTH [1] | Pre-emergence action against ALOMY ([2]; 320 g/ha) | Pre-emergence action against AMARE in % ([3]; 80 g/ha) | Pre-emergence action against AMARE in % ([3]; 320 g/ha) | Pre-emergence action against AVEFA in % (Avena fatua (AVEFA) [4]; 320 g/ha) | Pre-emergence action against ECHCG in % [5] | Pre-emergence action against LOLRI in % (Lolium rigidum (LOLRI) [6]; dosage 80 g/ha) | Pre-emergence action against LOLRI in % (Lolium rigidum (LOLRI) [6]; dosage 320 g/ha) | Pre-emergence action against POLCO in % ([8]; dosage 80 g/ha) | Pre-emergence action against POLCO in % ([8]; dosage 320 g/ha) | Pre-emergence action against VERPE in % [9] | Pre-emergence action against VIOTR in % (Viola tricolor (VIOTR) [10]; 320 g/ha, Viola tricolor) | Pre-emergence action against VIOTR in % (Viola tricolor (VIOTR) [10]; dosage 80 g/ha) | Post-emergence action against ABUTH in % ([11]; 320 g/ha) | Post-emergence action against ALOMY in % ([12]; 80 g/ha) | Post-emergence action against ALOMY in % ([12]; 320 g/ha) | Post-emergence action against AMARE in % [13, 24] | Post-emergence action against AMARE in % [13, 25] | Post-emergence action against AVEFA in % (Avena fatua (AVEFA) [14]; 320 g/ha) | Post-emergence action against ECHCG in % ([15]; dosage 80 g/ha) | other results
1 | COC(=O)CCOC(=O)[C@@H](C)Oc1nn(-c2ccccn2)c(-c2ccc(F)nc2)c1Cl [Example I-340] | 80% | 100% | 90% | 100% | 90% | 100% | 100% | 100% | 80% | 90% | 100% | 100% | 100% | 80% | 90% | 100% | 80% | 90% | 90% | 80% | Pre-emergence action against AVEFA in % (Avena fatua (AVEFA) [4]; 80 g/ha): 80%; Pre-emergence action against PHBPU in % [7]: 80%; Post-emergence action against AVEFA in % (Avena fatua (AVEFA) [14]; 80 g/ha): 90%; Post-emergence action against ECHCG in % ([15]; dosage 320 g/ha): 90%; Post-emergence action against LOLRI in % (Lolium rigidum (LOLRI) [16]; dosage 80 g/ha): 90%; Post-emergence action against LOLRI in % (Lolium rigidum (LOLRI) [16]; dosage 320 g/ha): 90%; Post-emergence action against PHBPU in % ([17]; dosage 80 g/ha): 90%; Post-emergence action against PHBPU in % ([17]; dosage 320 g/ha): 90%; Post-emergence action against POLCO in % ([18]; dosage 320 g/ha): 90%; Post-emergence action against SETVI in % (Setaria viridis (SETVI) [19]; dosage 80 g/ha): 80%; Post-emergence action against SETVI in % (Setaria viridis (SETVI) [19]; dosage 320 g/ha): 90%; Post-emergence action against VERPE in % ([20]; 320 g/ha, VERPE): 90%; Post-emergence action against VERPE in % ([20]; dosage 80 g/ha): 80%; Post-emergence action against VIOTR in % (Viola tricolor (VIOTR) [21]; 80 g/ha): 90%; Post-emergence action against VIOTR in % (Viola tricolor (VIOTR) [21]; 320 g/ha): 90%; Post-emergence action against ORYSA in % (Oryza sativa (ORYSA); 80 g/ha): 0%; Post-emergence action against ORYSA in % (Oryza sativa (ORYSA); 320 g/ha): 0%
2 | CCOC(=O)CNC(=O)COc1nn(-c2ncccc2F)c(-c2ccc(OC)nc2)c1Br [Example I-48] | 80% | 100% | 90% | 100% | 100% | 100% | 100% | 100% | 90% | 90% | 100% | 100% | 100% | 90% | 100% | 100% | 80% | 80% | 100% | 80% | Pre-emergence action against ALOMY ([2]; 80 g/ha): 80%; Pre-emergence action against MATIN in % [22]: 100%; Pre-emergence action against SETVI in % (Setaria viridis (SETVI) [23]; dosage 80 g/ha): 100%; Pre-emergence action against SETVI in % (Setaria viridis (SETVI) [23]; dosage 320 g/ha): 100%; Post-emergence action against ABUTH in % ([11]; 80 g/ha): 90%; Post-emergence action against ECHCG in % ([15]; dosage 320 g/ha): 90%; Post-emergence action against LOLRI in % (Lolium rigidum (LOLRI) [16]; dosage 320 g/ha): 80%; Post-emergence action against PHBPU in % ([17]; dosage 320 g/ha): 90%; Post-emergence action against POLCO in % ([18]; dosage 80 g/ha): 80%; Post-emergence action against POLCO in % ([18]; dosage 320 g/ha): 90%; Post-emergence action against SETVI in % (Setaria viridis (SETVI) [19]; dosage 80 g/ha): 80%; Post-emergence action against SETVI in % (Setaria viridis (SETVI) [19]; dosage 320 g/ha): 80%; Post-emergence action against VERPE in % ([20]; 320 g/ha, VERPE): 90%; Post-emergence action against VERPE in % ([20]; dosage 80 g/ha): 90%; Post-emergence action against VIOTR in % (Viola tricolor (VIOTR) [21]; 80 g/ha): 80%; Post-emergence action against VIOTR in % (Viola tricolor (VIOTR) [21]; 320 g/ha): 90%; Post-emergence action against ZEAMX in % (Zea mays (ZEAMX)): 20%
